Experimental findings from patent US10000488B2, “Heterocyclic compound” (TAKEDA PHARMACEUTICAL COMPANY LIMITED, priority 2014, dated 2018) are described below.

For assay [1], the target named is T1, RORγt (Homo sapiens, UniProt P51449).
T1 sequence (P51449 1-497 isoform P51449-2): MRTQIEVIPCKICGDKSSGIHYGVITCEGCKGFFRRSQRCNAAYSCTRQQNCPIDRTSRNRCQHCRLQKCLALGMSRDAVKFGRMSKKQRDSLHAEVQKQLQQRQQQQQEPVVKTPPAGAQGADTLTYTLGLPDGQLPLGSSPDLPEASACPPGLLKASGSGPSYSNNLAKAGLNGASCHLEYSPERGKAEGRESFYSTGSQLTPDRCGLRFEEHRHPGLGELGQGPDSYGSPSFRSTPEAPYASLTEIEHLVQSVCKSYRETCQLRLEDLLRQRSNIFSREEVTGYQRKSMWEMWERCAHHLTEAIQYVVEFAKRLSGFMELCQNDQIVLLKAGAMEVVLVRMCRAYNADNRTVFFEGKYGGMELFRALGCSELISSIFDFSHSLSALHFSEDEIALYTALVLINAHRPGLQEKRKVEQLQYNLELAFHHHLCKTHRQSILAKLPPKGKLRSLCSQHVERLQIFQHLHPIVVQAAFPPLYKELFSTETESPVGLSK
The assay can be described thus: Jurkat reporter test (human IL-17 ROR response element luciferase reporter, RORγt vector). Type of assay: cell-based. The conditions noted are these: test compound 3 μM; Jurkat cells; read-out: luminescence level inhibitory rate (%) at test compound 3 μM. In a few lines:
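Jurkat cells were electroporated (1350 V, 10 ms, 3 pulses) with the reporter constructs and plated in RPMI with 10% lipid-reduced FCS, 10 mM HEPES pH 7.5 and 5 μM lovastatin. After overnight culture with compound, luciferase activity was measured by luminescence following a 10 min room-temperature incubation with Bright-Glo.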
(In general: In a reporter assay the amount or activity of a reporter protein is the signal.)

The target of assay [2] is T1, RORγt. The assay can be described thus: Cofactor recruitment test (Alpha Screen, biotinylated SRC-1 peptide). It is filed as biochemical. The note with it: read-out: signal value inhibitory rate (%) at test compound 1 μM. How it is done:
Cofactor Recruitment Test
Cofactor recruitment test was performed by Alpha Screen (Histidine Detection Kit, PerkinElmer) method. First, a test compound was diluted with an assay buffer (50 mM Tris-HCl (pH 7.5), 50 mM KCl, 1 mM DTT, 0.1% BSA) and added to a 384 well plate by 5 μL. […] The mixture was stood in a dark place for 1 hr, and the signal value was measured by Envision (PerkinElmer).

For assay [3], the target named is T1, RORγt. The assay is described as follows: RORγt binding test using fluorescent-labeled synthetic ligand (TR-FRET). The conditions noted are these: test compound 1 μM; read-out: binding inhibitory rate (%) of fluorescent-labeled synthetic ligand to RORγt at test compound 1 μM. In a few lines:
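Compound displacement of a fluorescent-labeled synthetic ligand from His-tagged RORγt was read by TR-FRET with a terbium anti-His antibody. Buffer was 20 mM Tris-HCl pH 7.5, 100 mM NaCl, 1 mM DTT and 0.1% BSA, with stocks of 240 nM protein, 12 μM ligand and 8 nM antibody (pre-mix, not final). Incubations were 20 min plus 20 min at room temperature, with excitation at 320 nm, emission at 520 nm and a 100 μs delay.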
A general note: In TR-FRET formats the signal depends on donor and acceptor labels being close together.

Molecules are shown by their SMILES. Structures can show the parent of a compound that is named as a salt.

For `CC(C)n1c(=O)n(CC2CC2)c(=O)c2cc(NC(=O)N3CCNC(C(=O)Nc4ccc(C#N)c(F)c4)C3)ccc21` (stereo not drawn) [Example 92, N^3-(4-cyano-3-fluorophenyl)-N^1-(3-(cyclopropylmethyl)-1-isopropyl-2,4-dioxo-1,2,3,4-tetrahydroquinazolin-6-yl)piperazine-1,3-dicarboxamide hydrochloride], the inhibition at 3 µM at RORγt [1] is 103%. Also, the inhibition at 1 µM was 103% at RORγt [2] and 102% on RORγt [3].
As for `CC(C)n1c(=O)n(CC2CCOC2)c(=O)c2cc(NC(=O)N3CCO[C@@H](C(=O)Nc4ccc(C#N)c(Cl)c4)C3)c(F)cc21` (stereo partly drawn) [Example 335, (2R)—N^2-(3-chloro-4-cyanophenyl)-N^4-(7-fluoro-1-isopropyl-2,4-dioxo-3-(tetrahydrofuran-3-ylmethyl)-1,2,3,4-tetrahydroquinazolin-6-yl)morpholine-2,4-dicarboxamide], the inhibition at 3 µM on RORγt [1] came out at 106%. Moreover, the inhibition at 1 µM at RORγt [2] worked out at 108%; at RORγt [3], 101%.
For the compound `CCNC(=O)OCc1ccc(C(=O)N[C@@H]2CCCN(C(=O)Nc3cc4c(=O)n(CC5CC5)c(=O)n(C(C)C)c4cc3F)C2)cc1` [Example 315, 4-(((3R)-1-((3-(cyclopropylmethyl)-7-fluoro-1-isopropyl-2,4-dioxo-1,2,3,4-tetrahydroquinazolin-6-yl)carbamoyl)piperidin-3-yl)carbamoyl)benzyl ethylcarbamate], on RORγt [1], the inhibition at 3 µM was 108%. Further, the values for the inhibition at 1 µM on RORγt [2] and on RORγt [3] were 94% and 102%, respectively.
For `CC(C)n1c(=O)n(CC2CC2)c(=O)c2cc(NC(=O)N3CCO[C@@H](C(=O)Nc4cnc(C#N)c(Cl)c4)C3)c(F)cc21` [Example 266, (2R)-N^2-(5-chloro-6-cyanopyridin-3-yl)-N^4-(3-(cyclopropylmethyl)-7-fluoro-1-isopropyl-2,4-dioxo-1,2,3,4-tetrahydroquinazolin-6-yl)morpholine-2,4-dicarboxamide], in that order: 103%, 108% and 102%.
For `Cc1cc(C(=O)N[C@@H]2CCCN(C(=O)Nc3ccc4c(c3)c(=O)n(CC3CC3)c(=O)n4C(C)C)C2)ccc1C#N` [Example 249, (3R)-3-((4-cyano-3-methylbenzoyl)amino)-N-(3-(cyclopropylmethyl)-1-isopropyl-2,4-dioxo-1,2,3,4-tetrahydroquinazolin-6-yl)piperidine-1-carboxamide], in that order: 103%, 110% and 102%.
On the same counts, the results for `CC(C)n1c(=O)n(CC2CC2)c(=O)c2cc(NC(=O)N3CCC[C@@H](NC(=O)c4ccc(C#N)nc4)C3)ccc21` [Example 223, 6-cyano-N-((3R)-1-((3-(cyclopropylmethyl)-1-isopropyl-2,4-dioxo-1,2,3,4-tetrahydroquinazolin-6-yl)carbamoyl)piperidin-3-yl)nicotinamide] are 102%, 111% and 102%.
For `CC(C)n1c(=O)n(CC2CC2)c(=O)c2cc(NC(=O)N3CCOC(C(=O)Nc4cc(F)c(C#N)cc4F)C3)ccc21` (stereo not drawn) [Example 135, N^2-(4-cyano-2,5-difluorophenyl)-N^4-(3-(cyclopropylmethyl)-1-isopropyl-2,4-dioxo-1,2,3,4-tetrahydroquinazolin-6-yl)morpholine-2,4-dicarboxamide], the inhibition at 3 µM at RORγt [1] is 99%. Further, the inhibition at 1 µM on RORγt [2] came to 113%; on RORγt [3], 102%.
For `CC(C)n1c(=O)n(CC2CC2)c(=O)c2cc(NC(=O)N3CCCC(NC(=O)c4ccc(C#N)nc4)C3)ccc21` (stereo not drawn) [Example 157, 6-cyano-N-(1-((3-(cyclopropylmethyl)-1-isopropyl-2,4-dioxo-1,2,3,4-tetrahydroquinazolin-6-yl)carbamoyl)piperidin-3-yl) nicotinamide], in that order: 102%, 109% and 102%.
`CC(C)n1c(=O)n(C[C@@H]2CCCO2)c(=O)c2cc(NC(=O)N3CCO[C@@H](C(=O)Nc4ccc(C#N)c(Cl)c4)C3)c(F)cc21` [Example 357, (2R)—N^2-(3-chloro-4-cyanophenyl)-N^4-(7-fluoro-1-isopropyl-2,4-dioxo-3-((2S)-tetrahydrofuran-2-ylmethyl)-1,2,3,4-tetrahydroquinazolin-6-yl)morpholine-2,4-dicarboxamide]: the inhibition at 3 µM at RORγt [1] is 106%. Moreover, the inhibition at 1 µM at RORγt [2] is 107%; at RORγt [3], 101%.
For `CC(C)n1c(=O)n(CC2CC2(F)F)c(=O)c2cc(NC(=O)N3CCOC(C(=O)Nc4cc(Cl)c(C#N)cc4F)C3)c(F)cc21` (mixture of isomers) [Example 348, (2R)—N^2-(5-chloro-4-cyano-2-fluorophenyl)-N^4-(3-((2,2-difluorocyclopropyl)methyl)-7-fluoro-1-isopropyl-2,4-dioxo-1,2,3,4-tetrahydroquinazolin-6-yl)morpholine-2,4-dicarboxamide (mixture of two stereoisomers)], in that order: 107%, 107% and 102%.
For `CC(C)n1c(=O)n(CC2CC2)c(=O)c2cc(NC(=O)N3CCC[C@@H](NC(=O)c4cc(Cl)ccc4F)C3)c(F)cc21` [Example 282, (3R)-3-((5-chloro-2-fluorobenzoyl)amino)-N-(3-(cyclopropylmethyl)-7-fluoro-1-isopropyl-2,4-dioxo-1,2,3,4-tetrahydroquinazolin-6-yl)piperidine-1-carboxamide], in that order: 102%, 108% and 102%.
On the same counts, the results for `CC(C)n1c(=O)n(CC2CC2(F)F)c(=O)c2cc(NC(=O)N3CCCC(n4cnc5cc(C#N)ccc5c4=O)C3)c(F)cc21` (mixture of isomers) [Example 360, (3R)-3-(7-cyano-4-oxoquinazoline-3(4H)-yl)-N-(3-((2,2-difluorocyclopropyl)methyl)-7-fluoro-1-isopropyl-2,4-dioxo-1,2,3,4-tetrahydroquinazolin-6-yl)piperidine-1-carboxamide (mixture of two stereoisomers)] are 107%, 105% and 101%.
As for `CC(C)n1c(=O)n(CC2CC2)c(=O)c2cc(NC(=O)N3CCC[C@@H](N4Cc5ccc(C#N)cc5C4=O)C3)c(F)cc21` [Example 323, (3R)-3-(6-cyano-1-oxo-1,3-dihydro-2H-isoindol-2-yl)-N-(3-(cyclopropylmethyl)-7-fluoro-1-isopropyl-2,4-dioxo-1,2,3,4-tetrahydroquinazolin-6-yl)piperidine-1-carboxamide], the inhibition at 3 µM at RORγt [1] was found to be 103%. The inhibition at 1 µM at RORγt [2] is 108%; on RORγt [3] it was 102%.
For the compound `CC(C)n1c(=O)n(CC2CC2)c(=O)c2cc(NC(=O)N3CCC[C@@H](NC(=O)c4ccc(C#N)cc4F)C3)ccc21` [Example 219, (3R)-3-((4-cyano-2-fluorobenzoyl)amino)-N-(3-(cyclopropylmethyl)-1-isopropyl-2,4-dioxo-1,2,3,4-tetrahydroquinazolin-6-yl)piperidine-1-carboxamide], the inhibition at 3 µM at RORγt [1] was determined as 101%. Moreover, the inhibition at 1 µM at RORγt [2] was determined as 110%; at RORγt [3], 102%.
On the same counts, the results for `CC(C)n1c(=O)n(CC2CC2)c(=O)c2cc(NC(=O)N3CCO[C@@H](C(=O)Nc4cc(F)c(C#N)cc4F)C3)ccc21` [Example 168, (2R)-N^2-(4-cyano-2,5-difluorophenyl)-N^4-(3-(cyclopropylmethyl)-1-isopropyl-2,4-dioxo-1,2,3,4-tetrahydroquinazolin-6-yl)morpholine-2,4-dicarboxamide] are 102%, 108% and 102%.
On the same counts, the results for `Cc1ccc(F)c(C(=O)N[C@@H]2CCCN(C(=O)Nc3ccc4c(c3)c(=O)n(CC3CC3)c(=O)n4C(C)C)C2)c1` [Example 259, (3R)-N-(3-(Cyclopropylmethyl)-1-isopropyl-2,4-dioxo-1,2,3,4-tetrahydroquinazolin-6-yl)-3-((2-fluoro-5-methylbenzoyl)amino)piperidine-1-carboxamide] are 102%, 102% and 102%.
